# According to patent US6482951B2 (Hoffmann-La Roche Inc., priority 2000, dated 2002):
# Test system: C57BL/6J mice
# Experiment: Glucokinase activator in vivo screen (blood glucose after oral dosing)
# Conditions: oral gavage 50 mg/kg, blood glucose at 0, 1, 2, 4, 6 h, active = significant (p ≦0.05) decrease for two consecutive time points
# Experimental: Glucokinase Activator in vivo Screen Protocol: C57BL/6J mice are orally dosed via gavage with Glucokinase (GK) activator at 50 mg/kg body weight following a two hour fasting period. Blood glucose determinations are made five times during the six hour post-dose study period.
# Mice (n=6) are weighed and fasted for a two hour period prior to oral treatment. GK activators are formulated at 6.76 mg/ml in Gelucire vehicle (Ethanol:Gelucire44/14:PEG400q.s. 4:66:30 v/w/v. Mice are dosed orally with 7.5 μl formulation per gram of body weight to equal to a 50 mg/kg dose. Immediately prior to dosing, a pre dose (time zero) blood glucose reading is acquired by snipping off a small portion of the animals tail (˜1 mm) and collecting 15 μl blood into a heparinized capillary tube for analysis. Following GK activator administration, additional blood glucose reading are takenat 1, 2, 4 and 6 hours post dose from the same tail wound. Results are interpreted by comparing the mean blood glucose values of six vehicle treated mice with six GK activator treated mice over the six hour study duration. Compounds are considered active when they exibit a statistically significant (p ≦0.05) decrease in blood glucose compared to vehicle for two consecutive assay time points.
row,Structure (SMILES),glucokinase activator in vivo activity (decrease in blood glucose compared to vehicle)
1,"O=C(Nc1nccs1)[C@H](CC1CCCCC1)N1Cc2ccccc2C1=O [Example 1, (S)-3-cyclohexyl-2-(1-oxo-1,3-dihydro-isoindol-2-yl)-N-thiazol-2-yl-propionamide]",excellent glucokinase activator in vivo activity
2,"O=C(Nc1ccncn1)[C@H](CC1CCCCC1)N1Cc2ccccc2C1=O [Example 14, 3-Cyclohexyl-2-(1-oxo-1,3-dihydro-isoindol-2-yl)-N-pyrimidin-4-yl-propionamide]",excellent glucokinase activator in vivo activity
3,"O=C(Nc1cnccn1)[C@H](CC1CCCCC1)N1Cc2ccccc2C1=O [Example 15, (S)-3-Cyclohexyl-2-(1-oxo-1,3-dihydro-isoindol-2-yl)-N-pyrazin-2-yl-propionamide]",excellent glucokinase activator in vivo activity
4,"O=C(Nc1ncc(Cl)s1)C(CC1CCCC1)N1Cc2ccccc2C1=O (centres unmarked) [Example 18, N-(5-Chloro-thiazol-2-yl)-3-cyclopentyl-2-(1-oxo-1,3-dihydro-isoindol-2-yl)-propionamide]",excellent glucokinase activator in vivo activity
5,"O=C(Nc1ccc(Br)cn1)[C@H](CC1CCCCC1)N1Cc2ccccc2C1=O [Example 22, (S)-N-(5-Bromo-pyridin-2-yl)-3-cyclohexyl-2-(1-oxo-1,3-dihydro-isoindol-2-yl)-propionamide]",excellent glucokinase activator in vivo activity
6,"O=C(Nc1nccs1)[C@H](CC1CCCCC1)N1Cc2c(F)cccc2C1=O [Example 23.1, (S)-3-Cyclohexyl-2-(4-fluoro-1-oxo-1,3-dihydro-isoindol-2-yl)-N-thiazol-2-yl-propionamide]",excellent glucokinase activator in vivo activity
7,O=C(Nc1cnccn1)[C@H](CC1CCCCC1)N1Cc2c(F)cccc2C1=O [Example 25.1],excellent glucokinase activator in vivo activity
8,"O=C(Nc1ccccn1)[C@H](CC1CCCCC1)N1Cc2ccccc2C1=O [Example 26, (S)-3-Cyclohexyl-2-(1-oxo-1,3-dihydro-isoindol-2-yl)-N-pyridin-2-yl-propionamide]",excellent glucokinase activator in vivo activity
9,"Cc1ccc(NC(=O)[C@H](CC2CCCCC2)N2Cc3ccccc3C2=O)nc1 [Example 31, (S)-3-Cyclohexyl-2-(1-oxo-1,3-dihydro-isoindol-2-yl)-N-5-methyl-pyridin-2-yl-propionamide]",excellent glucokinase activator in vivo activity
10,"O=C(Nc1ccc(Cl)cn1)[C@H](CC1CCCCC1)N1Cc2ccccc2C1=O [Example 33, (S)-3-Cyclohexyl-2-(1-oxo-1,3-dihydro-isoindol-2-yl)-N-5-chloro-pyridin-2-yl-propionamide]",excellent glucokinase activator in vivo activity

# Target: T1, Human liver GK1 (GST-GK) (Homo sapiens, UniProt P35557)
# T1 construct: made in house; host or cells: E. coli
# T1 sequence (P35557 1-466 isoform P35557-2): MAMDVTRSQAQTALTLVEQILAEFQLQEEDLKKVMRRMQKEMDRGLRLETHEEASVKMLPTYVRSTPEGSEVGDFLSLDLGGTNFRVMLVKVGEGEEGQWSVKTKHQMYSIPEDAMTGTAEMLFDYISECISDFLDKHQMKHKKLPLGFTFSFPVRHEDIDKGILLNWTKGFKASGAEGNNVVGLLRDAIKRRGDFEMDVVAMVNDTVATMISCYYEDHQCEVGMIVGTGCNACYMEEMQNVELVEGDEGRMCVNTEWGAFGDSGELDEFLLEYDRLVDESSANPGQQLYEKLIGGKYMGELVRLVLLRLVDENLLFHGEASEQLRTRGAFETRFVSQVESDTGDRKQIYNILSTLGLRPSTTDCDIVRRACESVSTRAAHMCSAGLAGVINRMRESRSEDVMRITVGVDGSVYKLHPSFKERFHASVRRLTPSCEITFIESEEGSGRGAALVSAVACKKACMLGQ
# Experiment: In vitro glucokinase activity assay (G6PDH-coupled, NADH, OD 340 nm)
# Format: biochemical
# Conditions: 25° C., 5 mM D-glucose, 1 mM ATP, 10% DMSO, recombinant GST-GK
# Experimental: Glucokinase Assay: Glucokinase (GK) was assayed by coupling the production of glucose-6-phosphate to the generation of NADH with glucose-6-phosphate dehydrogenase (G6PDH, 0.75-1 kunits/mg; Boehringer Mannheim, Indianapolis, Ind.) from Leuconostoc mesenteroides as the coupling enzyme (Scheme 2). Recombinant
# Human liver GK1 was expressed in E. coli as a glutathione S-transferase fusion protein (GST-GK) [Liang et al, 1995] and was purified by chromatography over a glutathione-Sepharose 4B affinity column using the procedure provided by the manufacturer (Amersham Pharmacia Biotech, Piscataway, N.J.).
# The assay was conducted at 25° C. in a flat bottom 96-well tissue culture plate from Costar (Cambridge, Mass.) with a final incubation volume of 120 μl. The incubation mixture contained: 25 mM Hepes buffer (pH, 7.1), 25 mM KCl, 5 mM D-glucose, 1 mM ATP, 1.8 mM NAD, 2 mM MgCl2, 1 μM sorbitol-6-phosphate, 1 mM dithiothreitol, test drug or 10% DMSO, 1.8 unit/ml G6PDH, and GK (see below). […]
# After addition of enzyme, the increase in optical density (OD) at 340 nm was monitored over a 10 minute incubation period as a measure of GK activity. […] The GK activity in control wells was compared with the activity in wells containing test GK activators, and the concentration of activator that produced a 50% increase in the activity of GK, i.e., the SC1.5, was calculated.
row,Structure (SMILES),SC1.5 (concentration of activator that produced a 50% increase in the activity of GK) [µM]
1,"O=C(Nc1nccs1)[C@@H](CC1CCCCC1)N1Cc2ccccc2C1=O [Example 9, (R)-3-cyclohexyl-2-(1-oxo-1,3-dihydro-isoindol-2-yl)-N-thiazol-2-yl-propionamide]",36
